Assay [1] concerns interleukin-2 receptor(IL-2R). Description: Activation-induced interleukin-2 receptor expression on Jurkat T cell surface, flow cytometry. Type of assay: cell-based, human. Particulars: 1 μg/ml, OKT-3 + PMA. The method, then: To investigate the suppressive activity against interleukin-2 receptor(IL-2R) expression on the cell surface, 1×10^6 of Jurkat T cell treated with 1 μg/ml of tautomycetin was activated by OKT-3 monoclonal antibody and PMA, and color-developed by the aid of monoclonal antibody against IL-2R(anti IL-2R mAb), then analysed by flow cytometry.

For assay [2], the system named is graft rejection in heart transplantation. Description: Heart graft experiment (Lewis rat donor, Wistar rat recipient), heartbeat by palpation. The class given is in vivo.
Assay [3] concerns T-cell proliferation in mixed lymphocyte reaction (splenocytes of Balb/C and C57BL/6 mouse). As to the kind of experiment: Mouse mixed lymphocyte reaction (MLR), [3H]-thymidine labelling. The class given is cell-based. Particulars: 72 hours + 24 hours [3H]-thymidine. The method, then:
After the mixed cell culture was incubated at 37° C. for 72 hours, under an environment of 5% CO2, [^3H]-thymidine was added to the plate and further incubated for 24 hours to investigate the suppressive activity against T-cell proliferation by the degree of thymidine labelling.

Assay [4] deals with tyrosine phosphorylation of intracellular proteins (BcR signal transduction). Description: Immunoblot of tyrosine phosphorylation in CD8-Igα/CD8-Igβ transfected BJAB cell (human B-cell). Type of assay: cell-based. As to conditions: BJAB transfectants, stimulation by monoclonal antibody against BcR. (Immunoblotting shows a protein as a band on a membrane.)
Assay [5] concerns cell surface antigen CD69. As to the kind of experiment: Activation-induced CD69 expression in Jurkat T cells, flow cytometry. The class given is cell-based, human. As to conditions: 1 μg/ml, OKT-3 + PMA, 20 hours. The method, then: 1 μg/ml of tautomycetin was added to 1×10^6 of Jurkat T cells, which were stimulated by 10 μg/ml of OKT-3 monoclonal antibody and 50 ng/ml of PMA, and the cells were incubated for 20 hours. Monoclonal antibody against CD69(anti-CD69 mAb) was treated to the cells to carry out color-reaction and analysed by flow cytometry.
In general terms: Flow cytometry measures light scatter and fluorescence of single cells or particles in a stream.

The test system of assay [6] is IL-2 expression. As to the kind of experiment: IL-2 expression reporter (NF-AT/IL-2 promoter β-galactosidase) in transfected Jurkat T cells stimulated by OKT-3 (TcR-mediated) and PMA. The class given is cell-based, human. The method, then: Monoclonal antibody OKT-3, which binds specifically to ε-chain of T-cell receptor(TcR)-CD3 complex, induces IL-2 expression and specific T-cell proliferation by activating TcR-mediated signal transduction. In this regard, the suppressive activity of tautomycetin against the expression of IL-2 stimulated via TcR was investigated: First, 10 μg of goat anti-mouse IgG was immobilized on 96-well microplate in an ELISA coating buffer(pH 9.0) and 10 μg of monoclonal antibody OKT-3 was also immobilzed thereon. To monitor the IL-2 expression level indirectly, transfected Jurkat T cells where the expression of β-galactosidase is driven by the multiple NF-AT(nuclear transcriptional activator) binding sites upstream of minimal IL-2 promoter, were employed and the cells were resuspended in RPMI medium containing 10% fetal bovine serum, 2 mM L-glutamine and 100 unit of penicillin. 1×10^5 of transfected Jurkat T cells were aliquoted to 96-well microplate, and incubated for 24 hours in a medium containing 64 nM PMA while changing the concentration of tautomycetin. Then, centrifugation was carried out to harvest cells, and washed twice with PBS. 150 μl of β-galactosidase detecting solution(containing 0.1% Triton X-100, 200 mM sodium phosphate, 2 mM MgCl2, 100 mM β-mercaptoethanol, 1.33 mg/ml ONPG) was added to each well and after 1 hour, 100 μl of 1M sodium carbonate was added to stop the reaction and measured the suppressive activity of tautomycetin against the IL-2 expression by spectrophotometry at a wavelength of 410 nm.

Assay [7] has as its system tyrosine phosphorylation of intracellular proteins involved in TcR-mediated signal transduction. Description: Immunoblot of tyrosine phosphorylation in CD8-ζ transfected Jurkat T cells stimulated by OKT-8. The class given is cell-based, human. As to conditions: 1 μg/ml, 10 hours, Jurkat T CD8-ζ transfectants, OKT-8 stimulation. The method, then:
The suppressive activity of tautomycetin against the signal transduction around the membrane was investigated by determining the suppressive activity against the tyrosine phosphorylation of intracellular protein: To analyse the pathway of signal transduction mediated by TcR, Jurkat T cells which were transfected with a recombinant gene fragment, CD8-ζ chimeric DNA, harboring the ecto+transmembrane domain of CD8 and endomembrane domain of CD3-ζ chain, were cultured in RPMI medium containing 10% fetal bovine serum, 2 mM L-glutamine and 100 unit of penicillin. 1 μg/ml of tautomycetin was treated to 1×10^6 of Jurkat T cell transfectants and incubated for 10 hours, then centrifugation was carried out to harvest cells. The cells were washed twice with PBS and then stimulated by 10 μg/ml of OKT-8 and 10 μg/ml of the rabbit anti-mouse IgG antibody. The tyrosine phosphorylation was detected by immunoblot where the protein was isolated by 12.5% SDS-polyacrylamide gel electrophoresis and transferred to Immunobilon-P membrane(Millipore, U.S.A.). The phosphorylated tyrosine residue of intracellular protein or ZAP-70 protein was detected by the treatment of monoclonal antibody 4G10(Upstate Biotech Inc., U.S.A) or monoclonal antibody against ZAP-70(Zymed, U.S.A.), respectively. […]

The next assay has as its system Aspergillus niger. As to the kind of experiment: Antimicrobial activity by agar diffusion method (paper disc). Type of assay: cell-based. The method, then:
The antimicrobial activity of tautomycetin prepared in Example 3 was measured by agar diffusion method. 1×10^8/ml of spore suspension of Aspergillus niger was mixed with glucose-yeast extract agar medium and a paper disc containing tautomycetin was put on the agar plate.
In general terms: In agar diffusion tests the substance spreads into inoculated agar from a disc or well.

Assay [8] deals with IL-2 expression. Description: IL-2 expression reporter (NF-AT/IL-2 promoter β-galactosidase) in transfected Jurkat T cells stimulated by PMA and ionomycin. The class given is cell-based, human. From the text:
The suppressive activity of tautomycetin against the expression of interleukin-2(IL-2), which plays a crucial role in the immune system, was investigated by treating T-cell proliferating factors such as phorbol-12-myristate-13-acetate(PMA) and ionomycin, which activate protein kinase C to increase the level of diacylglycerol and Ca^2+ in cells: First, to monitor the IL-2 expression level indirectly, transfected Jurkat T cells where the expression of β-galactosidase is driven by the multiple NF-AT(nuclear transcriptional activator) binding sites upstream of minimal IL-2 promoter, were employed and the cells were resuspended in RPMI medium containing 10% fetal bovine serum, 2 mM L-glutamine and 100 unit of penicillin. 1×10^5 of transfected Jurkat T cells were aliquoted to 96-wll microplate, and incubated for 24 hours with the 4 μM ionomycin and 64 nM PMA, while changing the concentration of tautomycetin. Then, centrifugation was carried out to harvest cells, and washed twice with phosphate-buffered saline(PBS). 150 μl of β-galactosidase detecting solution(containing 0.1% Triton X-100, 200 mM sodium phosphate, 2 mM MgCl2, 100 mM β-mercaptoethanol, 1.33 mg/ml ONPG) was added to each well and incubated at 37° C. for 1 hour. 100 μl of 1M sodium carbonate was added to stop the reaction and measured the suppressive activity of tautomycetin against the IL-2 expression by spectrophotometry at a wavelength of 410 nm.

On to tautomycetin, for which the “activation-induced expression of IL-2R on the cell surface” value in assay [1] is “suppresses the expression of IL-2R on the cell surface more effectively than cyclosporin A”. For the same substance, the “concentration sustaining the heart movement, as fraction of cyclosporin A” value is 1/50 in assay [2] (i.p., injection formula of Example 11) and 1/500 in assay [2] (i.v., injection formula of Example 12). Besides, the IC50 (in general, the concentration that inhibits the measured activity by half) in assay [3] worked out at 0.043 µM. In addition, the “tyrosine phosphorylation of intracellular proteins in B-cell” value in assay [4] is recorded as “does not inhibit”. Besides, in [5], the “activation-induced expression of cell surface antigen CD69” value is “suppresses the expression of cell surface antigen CD69”. Also, the “IC50, suppressive activity against IL-2 expression” value with IL-2 expression [6] (Jurkat T transfectants, immobilized OKT-3 and 64 nM PMA, 24 hours) came out at 6.6e-06 ng/mL; in the assay on IL-2 expression [8] (Jurkat T transfectants, 4 μM ionomycin and 64 nM PMA, 24 hours), 3 ng/mL. The “suppressive activity against IL-2 expression relative to cyclosporin A” value is on record as 100 times in the assay on IL-2 expression [6] (OKT-3 + PMA) and 6 times with IL-2 expression [8] (PMA + ionomycin). The “Suppressive Activity against IL-2 expression” value in the assay on IL-2 expression [6] (concentration 10^−7 μg/ml, OKT-3 + PMA) is 74.8; in the assay with IL-2 expression [6] (concentration 10^−8 μg/ml, OKT-3 + PMA) it was 46.8; in the assay with IL-2 expression [6] (concentration 10^−9 μg/ml, OKT-3 + PMA), 37.5; in the assay on IL-2 expression [8] (concentration 0.001 μg/ml, PMA + ionomycin), 12.8; in the assay on IL-2 expression [8] (concentration 0.01 μg/ml, PMA + ionomycin), 83.9; with IL-2 expression [8] (concentration 0.1 μg/ml, PMA + ionomycin), 88. Besides, the “Suppressive Activity against IL-2 expression” value in the assay with IL-2 expression [8] (concentration 1 μg/ml, PMA + ionomycin) stood at 98. The “tyrosine phosphorylation of intracellular proteins (TcR-mediated signal transduction), except for ZAP-70” value in [7] is “inhibited”. In addition, the “minimum inhibitory concentration(MIC)” value with Aspergillus niger (48 hours at 28° C., size of growth inhibitory zone) is recorded as “less than 1 μg/ml”. In addition, in the assay with Aspergillus niger (MIC comparison), the “antimicrobial strength relative to cyclosporin A” value was 10 times.
